Assay results as given in US20240199647A1, “ANTI-VIRAL COMPOUNDS” (Aligos Therapeutics, Inc., priority 2022, published 2024).
Where two headings read alike, the source gives them in different places.

How the values were obtained:
[1] = target: SARS-Cov-2 3CLpro (Severe acute respiratory syndrome coronavirus 2, UniProt P0DTD1); assay: biochemical; conditions: Table A, class symbols, read-out: SARS-Cov-2 (IC50)
[2] = tested on: human beta-coronavirus OC43; assay: OC43 Coronavirus Assay in HeLa cells (antiviral, cytopathic effect, cell-titer-glo); type: cell-based; conditions: Betacoronavirus 1, OC43, HeLa
[3] = in vitro; conditions: human
[4] = tested on: SARS-CoV-2 B.1.1.7 lineage; assay: microbe, parasite or virus in culture; type: cell-based
[5] = Cytotoxicity in HeLa cells without addition of OC43 virus (in parallel); conditions: human, HeLa cells, without OC43 virus
[6] = Table B, OC43 coronavirus in HeLa cells, class symbols, read-out: EC50
[7] = Severe acute respiratory syndrome coronavirus 2, Table C, SARS-CoV-2 B.1.1.7 in A549-dual_ACE2_TMPRSS2 cells, class symbols, read-out: A549-dual_ACE2_TMPRSS2 (EC50)
[8] = Severe acute respiratory syndrome coronavirus 2, Table C, SARS-CoV-2 B.1.1.7 in A549-dual_ACE2_TMPRSS2 cells, cells given as a bound, read-out: A549-dual_ACE2_TMPRSS2 (EC50)
[9] = Table B, OC43 coronavirus in HeLa cells, cells given as a bound, read-out: EC50

| Structure (SMILES) | IC50 [1] | EC50 [2, 6] | CC50 [3] | EC50 [4, 7] | CC50 at 6 days [5] | EC50 [4, 8] | EC50 [2, 9] | EC50 [2] | EC50 ([4]; Severe acute respiratory syndrome coronavirus 2, read-out: A549-dual_ACE2_TMPRSS2 (EC50)) |
| --- | --- | --- | --- | --- | --- | --- | --- | --- | --- |
| CN(C(=O)[C@H](CC(F)(F)F)NC(=O)C(F)(F)F)[C@@H](CC1CC1)C(=O)N1C[C@@]2(C[C@H]1C#N)Oc1cc(F)cc(F)c1NC2=O [Compound 85] | < 20 nM | 100 to 1000 nM | > 1000 nM | < 100 nM | > 10000 nM | – | – | – | – |
| CC1NC(=O)[C@]2(C[C@@H](C#N)N(C(=O)[C@H](CC3CC3)N(C)C(=O)[C@H](CC3CC3)NC(=O)C(F)(F)F)C2)Oc2ccccc21 (stereo partly drawn) [Compound 222, (2S)—N-((2S)-1-((2R,5'S)-5′-cyano-5-methyl-3-oxo-4,5-dihydro-3H-spiro[benzo[f][1,4]oxazepine-2,3′-pyrrolidin]-1′-yl)-3-cyclopropyl-1-oxopropan-2-yl)-3-cyclopropyl-N-methyl-2-(2,2,2-trifluoroacetamido)propanamide] | < 20 nM | < 100 nM | > 1000 nM | < 100 nM | > 10000 nM | – | – | – | – |
| CN(C(=O)c1cc2cccnc2[nH]1)[C@@H](CC1CC1)C(=O)N1C[C@@]2(C[C@H]1C#N)Oc1cc(F)cc(F)c1NC2=O [Compound 137] | 20 to 200 nM | 1000 to 10000 nM | > 1000 nM | 100 to 1000 nM | > 10000 nM | – | – | – | – |
| CC(C)C[C@@H](C(=O)N1C[C@]2(C[C@H]1C#N)C(=O)Nc1ccnn12)N(C)C(=O)[C@H](C)NC(=O)C(F)(F)F [Example 45, (2S)—N-[(2S)-1-[(3R,5'S)-5′-cyano-2-oxo-1H-spiro[pyrazolo[1,5-a]imidazole-3,3′-pyrrolidin]-1′-yl]-4-methyl-1-oxopentan-2-yl]-N-methyl-2-(2,2,2-trifluoroacetamido)propanamide] | 20 to 200 nM | 100 to 1000 nM | > 1000 nM | – | > 10000 nM | > 1000 nM | – | – | – |
| CN(C(=O)[C@H](CC1CC1)NC(=O)C(F)(F)F)[C@@H](CC1CC1)C(=O)N1C[C@@]2(C[C@H]1C#N)Oc1c(F)ccc(F)c1NC2=O [Compound 57] | < 20 nM | < 100 nM | > 1000 nM | < 100 nM | > 10000 nM | – | – | – | – |
| COC(=O)N[C@@H](C)C(=O)N(C)[C@@H](CC(C)C)C(=O)N1C[C@@]2(C[C@H]1C#N)Oc1cc(F)cc(F)c1NC2=O [Compound 70] | < 20 nM | – | > 1000 nM | 100 to 1000 nM | > 10000 nM | – | > 10000 nM | – | – |
| CN(C(=O)[C@H](CC1CC1)NC(=O)C(F)(F)F)[C@@H](CC1CC1)C(=O)N1C[C@@]2(C[C@H]1C#N)Oc1cc(C#N)cc(F)c1NC2=O [Example 34, (S)-3-cyclopropyl-N—((S)-3-cyclopropyl-1-((2R,5'S)-5′,7-dicyano-5-fluoro-3-oxo-3,4-dihydrospiro[benzo[b][1,4]oxazine-2,3′-pyrrolidin]-1′-yl)-1-oxopropan-2-yl)-N-methyl-2-(2,2,2-trifluoroacetamido)propanamide] | < 20 nM | 100 to 1000 nM | > 1000 nM | 100 to 1000 nM | > 10000 nM | – | – | – | – |
| CN(C(=O)[C@H](CC(C)(C)C)NC(=O)C(F)(F)F)[C@@H](CC1CC1)C(=O)N1C[C@@]2(C[C@H]1C#N)Oc1ncccc1NC2=O [Compound 204] | < 20 nM | < 100 nM | > 1000 nM | < 100 nM | > 10000 nM | – | – | – | – |
| CN(C(=O)[C@H](CC1CC1)NC(=O)C(F)(F)F)[C@@H](CC1CC1)C(=O)N1C[C@@]2(C[C@H]1C#N)Oc1cc(F)ccc1NC2=O [Compound 50] | < 20 nM | < 100 nM | > 1000 nM | < 100 nM | > 10000 nM | – | – | – | – |
| CC[C@H](NC(=O)C(F)(F)F)C(=O)N(C)[C@@H](CC1CC1)C(=O)N1C[C@@]2(C[C@H]1C#N)Oc1cc(F)cc(F)c1NC2=O [Compound 88] | < 20 nM | 100 to 1000 nM | > 1000 nM | < 100 nM | > 10000 nM | – | – | – | – |
| CC(C)N1CC2(CC2)C[C@H]1C(=O)N(C)[C@@H](CC1CC1)C(=O)N1C[C@@]2(C[C@H]1C#N)Oc1cc(F)cc(F)c1NC2=O [Compound 116] | < 20 nM | 100 to 1000 nM | > 1000 nM | 100 to 1000 nM | > 10000 nM | – | – | – | – |
| C[C@H](NC(=O)C(F)(F)F)C(=O)N(C)[C@@H](CC(C)(C)C)C(=O)N1C[C@@]2(C[C@H]1C#N)Oc1cc(F)cc(F)c1NC2=O [Compound 62] | < 20 nM | 100 to 1000 nM | > 1000 nM | 100 to 1000 nM | > 10000 nM | – | – | – | – |
| CN(C(=O)[C@H](CC1CCC1)NC(=O)C(F)(F)F)[C@@H](CC1CC1)C(=O)N1C[C@@]2(C[C@H]1C#N)Oc1ncccc1NC2=O [Compound 203] | < 20 nM | < 100 nM | > 1000 nM | < 100 nM | > 10000 nM | – | – | – | – |
| C[C@@H](OC(C)(C)C)[C@H](NC(=O)C(F)(F)F)C(=O)N(C)[C@@H](CC1CC1)C(=O)N1C[C@@]2(C[C@H]1C#N)Oc1cc(F)cc(F)c1NC2=O [Compound 159] | < 20 nM | 100 to 1000 nM | > 1000 nM | < 100 nM | > 10000 nM | – | – | – | – |
| C[C@H](NC(=O)C(F)(F)F)C(=O)N(C)[C@@H](CC(C)(C)C)C(=O)N1C[C@@]2(C[C@H]1C#N)Oc1cccnc1NC2=O [Compound 166] | < 20 nM | < 100 nM | > 1000 nM | 100 to 1000 nM | > 10000 nM | – | – | – | – |
| CN(C(=O)[C@@H]1CCN(C(=O)C(F)(F)F)C1)[C@@H](CC1CC1)C(=O)N1C[C@@]2(C[C@H]1C#N)Oc1cc(F)cc(F)c1NC2=O [Compound 128] | 200 to 2000 nM | – | > 1000 nM | 100 to 1000 nM | > 10000 nM | – | – | > 10000 nM | – |
| CC(C)C[C@@H](C(=O)N1C[C@]2(C[C@H]1C#N)C(=O)Nc1ccccc1N2C)N(C)C(=O)[C@H](C)NC(=O)C(F)(F)F [Example 42, (S)—N—((S)-1-((3R,5S)-5-cyano-1′-methyl-3′-oxo-3′,4′-dihydro-1′H-spiro[pyrrolidine-3,2′-quinoxalin]-1-yl)-4-methyl-1-oxopentan-2-yl)-N-methyl-2-(2,2,2-trifluoroacetamido) propanamide] | 20 to 200 nM | – | > 1000 nM | 100 to 1000 nM | > 10000 nM | – | > 10000 nM | – | – |
| CN(C(=O)C(=O)Nc1ccc(F)cc1)[C@@H](CC1CC1)C(=O)N1C[C@@]2(C[C@H]1C#N)Oc1cccnc1NC2=O [Compound 226, N^1—((S)-1-((2R,5'S)-5′-cyano-3-oxo-3,4-dihydrospiro[pyrido[3,2-b][1,4]oxazine-2,3′-pyrrolidin]-1′-yl)-3-cyclopropyl-1-oxopropan-2-yl)-N^2-(4-fluorophenyl)-N^1-methyloxalamide] | 200 to 2000 nM | 1000 to 10000 nM | > 1000 nM | – | > 10000 nM | > 1000 nM | – | – | – |
| CN(C(=O)[C@H](CC1CC(F)(F)C1)NC(=O)C(F)(F)F)[C@@H](CC1CC1)C(=O)N1C[C@@]2(C[C@H]1C#N)Oc1cccnc1NC2=O [Compound 187] | < 20 nM | < 100 nM | > 1000 nM | 100 to 1000 nM | > 10000 nM | – | – | – | – |
| CN(C(=O)[C@@H](Cc1ccc(F)cc1)NC(=O)C(F)(F)F)[C@@H](CC1CC1)C(=O)N1C[C@@]2(C[C@H]1C#N)Oc1cccnc1NC2=O [Compound 200] | < 20 nM | 100 to 1000 nM | > 1000 nM | < 100 nM | > 10000 nM | – | – | – | – |
| CC(C)C[C@@H](C(=O)N1C[C@@]2(C[C@H]1C#N)CC1(CC1)NC2=O)N(C)C(=O)[C@H](C)NC(=O)C(F)(F)F [Compound 13, (S)—N—((S)-1-((5R,8S)-8-cyano-10-oxo-7,11-diazadispiro[2.1.4^5.2^3]undecan-7-yl)-4-methyl-1-oxopentan-2-yl)-N-methyl-2-(2,2,2-trifluoroacetamido)propanamide] | < 20 nM | 100 to 1000 nM | > 1000 nM | – | > 10000 nM | – | – | – | 100 to 1000 nM |
| CN(C(=O)[C@H](CC1CC1)NC(=O)C(F)(F)F)[C@@H](CC1CC1)C(=O)N1C[C@@]2(C[C@H]1C#N)Oc1cccnc1CNC2=O [Compound 121, (S)—N—((S)-1-((2R,5'S)-5′-cyano-3-oxo-4,5-dihydro-3H-spiro[pyrido[2,3-f][1,4]oxazepine-2,3′-pyrrolidin]-1′-yl)-3-cyclopropyl-1-oxopropan-2-yl)-3-cyclopropyl-N-methyl-2-(2,2,2-trifluoroacetamido)propanamide] | < 20 nM | < 100 nM | > 1000 nM | 100 to 1000 nM | > 10000 nM | – | – | – | – |
| CN(C(=O)[C@H](CC1CC1)NC(=O)C(F)(F)F)[C@@H](CC1CC1)C(=O)N1C[C@@]2(C[C@H]1C#N)Oc1c(F)cccc1CNC2=O [Compound 168] | < 20 nM | < 100 nM | > 1000 nM | < 100 nM | > 10000 nM | – | – | – | – |
| C[C@H](NC(=O)C(F)(F)F)C(=O)N(C)[C@@H](CC(C)(C)F)C(=O)N1C[C@@]2(C[C@H]1C#N)Oc1cc(F)cc(F)c1NC2=O [Compound 61] | < 20 nM | 1000 to 10000 nM | > 1000 nM | 100 to 1000 nM | > 10000 nM | – | – | – | – |
| C[C@H](NC(=O)C(F)(F)C(F)(F)F)C(=O)N(C)[C@@H](CC1CC1)C(=O)N1C[C@@]2(C[C@H]1C#N)Oc1cc(F)cc(F)c1NC2=O [Compound 95] | < 20 nM | 1000 to 10000 nM | > 1000 nM | < 100 nM | > 10000 nM | – | – | – | – |
